Experimental data as given in US7282521B2, “Anti-retroviral moronic acid derivatives” (priority 2004, dated 2007).
pEC50, pIC50: −log10 of the molar value. Like-named read-outs stand apart in the source and are kept apart here.

What was measured:
[1] = system: NL4-3, a T-cell adapted HIV-1 strain, X4 wild type virus; assay: microbe, parasite or virus in culture; format: cell-based
Source text: (§1) NL4-3 is a T-cell adapted HIV-1 strain, a wild type virus; PI—R is HIV-1M46I/L63P/V82P/I84V, an HIV-1 strain resistant to multiple protease inhibitors; and FHR-2 is an HIV-1 strain resistant to DSB (2).

[2] = system: FHR-2, an HIV-1 strain resistant to DSB (2); assay: microbe, parasite or virus in culture; format: cell-based
Source text: as §1

[3] = system: PI-R, HIV-1M46I/L63P/V82P/I84V, resistant to multiple protease inhibitors; assay: microbe, parasite or virus in culture; format: cell-based
Source text: as §1

[4] = system: MT-4 cells; assay: Cell growth inhibition (cytotoxicity) of uninfected cells; format: cell-based; details: table title: MT-4 cells; uninfected H9 cell growth; read-out: IC50 (concentration that inhibits uninfected cell growth by 50%)
[5] = system: HIV fusion; assay: Anti-HIV fusion activity (preliminary, data not shown); format: cell-based; details: preliminary results
Source text: as §1

[6] = Cell growth inhibition (cytotoxicity) of uninfected cells; format: cell-based; details: human, uninfected MT-4 cells; table title: MT-4 cells; uninfected H9 cell growth; read-out: IC50 (concentration that inhibits uninfected cell growth by 50%)
[7] = system: HIV in H9 lymphocyte; details: cited from earlier work
[8] = MT-4 cells, NL4-3 wild type HIV-1 strain, read-out: EC50, NL4-3 (concentration that inhibits viral replication by 50%)
[9] = MT-4 cells, DSB-resistant HIV-1 strain, — = no suppression at 5 μM, read-out: EC50, FHR-2 (concentration that inhibits viral replication by 50%)
[10] = MT-4 cells, multi-protease-inhibitor resistant HIV-1 strain, read-out: EC50, PI-R (concentration that inhibits viral replication by 50%)

SMILES | pEC50 [1, 8] | pEC50 [2, 9] | pEC50 [3, 10] | pIC50 [4] | anti-HIV fusion activity [5] | pEC50 ([1]; Human immunodeficiency virus 1, NL43, MT4, read-out: EC50, NL4-3 (concentration that inhibits viral replication by 50%)) | pEC50 ([2]; Human immunodeficiency virus 1, MT4, read-out: EC50, FHR-2 (concentration that inhibits viral replication by 50%)) | pEC50 ([3]; Human immunodeficiency virus 1, MT4, read-out: EC50, PI-R (concentration that inhibits viral replication by 50%)) | pIC50 [6] | EC50, anti-HIV activity [7] [µg/mL]
CC(C)CC(CO)NC(=O)[C@]12CCC(C)(C)C=C1[C@H]1CC[C@@H]3[C@@]4(C)CC[C@H](OC(=O)CC(C)(C)C(=O)O)C(C)(C)[C@@H]4CC[C@@]3(C)[C@]1(C)CC2 (stereo partly drawn) [Compound 7, N-[3β-(3′,3′-Dimethylsuccinoxy)olean-18-en-28-oyl]-(1-hydroxy-methyl-3-methyl-butyl)-amide] | 7.35 | 5.56 | 7.06 | < 4.84 | exhibit anti-HIV fusion activity | – | – | – | – | –
C=C(C)[C@@H]1CC[C@]2(C(=O)O)CC[C@]3(C)[C@H](CC[C@@H]4[C@@]5(C)CC[C@H](OC(=O)CC(C)(C)C(=O)O)C(C)(C)[C@@H]5CC[C@]43C)[C@@H]12 [DSB (2), 3-O-(3′,3′-dimethylsuccinyl)-betulinic acid, reference compound] | – | – | – | – | – | 7.02 | < 5.30 | 6.37 | < 5.30 | –
CC(C)C[C@H](NC(=O)[C@]12CCC(C)(C)C=C1[C@H]1CC[C@@H]3[C@@]4(C)CC[C@H](OC(=O)CC(C)(C)C(=O)O)C(C)(C)[C@@H]4CC[C@@]3(C)[C@]1(C)CC2)C(=O)O [Compound 8, N-[3β-(3′,3′-Dimethylsuccinoxy)olean-18-en-28-oyl]-L-leucine] | 8.24 | 6.89 | 7.68 | < 4.84 | exhibit anti-HIV fusion activity | – | – | – | – | –
Cc1cn([C@H]2C[C@H](N=[N+]=[N-])[C@@H](CO)O2)c(=O)[nH]c1=O [AZT, reference compound] | 7.89 | 6.72 | – | < 4.43 | – | – | – | – | – | –
CC1(C)C=C2[C@H]3CC[C@@H]4[C@@]5(C)CCC(=O)C(C)(C)[C@@H]5CC[C@@]4(C)[C@]3(C)CC[C@@]2(C(=O)O)CC1 [moronic acid (3), moronic acid] | – | – | – | – | – | – | – | – | – | < 0.1
